Laboratory results: the Deep4Chem optical property database

Assay: photoluminescence quantum yield (fraction); solvent given as SMILES

CCOC(=O)COc1ccc(/C=C/c2cc(C)c3n2[B-](F)(F)[N+]2=C(c4[nH]c(C)cc4C)c4ccccc4C2=C3)cc1
photoluminescence quantum yield (in C1CCOC1): 0.34 | photoluminescence quantum yield (in CC#N): 0.3 | photoluminescence quantum yield (in CCCCCC): 0.73 | photoluminescence quantum yield (in CO): 0.08 | photoluminescence quantum yield (in Cc1ccccc1): 0.69 | photoluminescence quantum yield (in ClCCl): 0.75

N#Cc1ccc(-n2c3ccccc3c3c2c2ccccc2n3-c2ccccc2)cc1
photoluminescence quantum yield (in Cc1ccccc1): 0.143

COc1cc2c(cc1-c1ccc(N(C)C)cc1)Cc1c3c(c4c(c1-2)-c1cc(OC)c(-c2ccc(N(C)C)cc2)cc1C4)C(=O)N(CCC(C)C)C3=O
photoluminescence quantum yield (in C1CCOC1): 0.02

CN(C)c1ccc2c(c1)C(C)(C)C(=O)C=C2
photoluminescence quantum yield (in O): 0.13

COC(=O)/C(C#N)=c1\s/c(=c2/s/c(=C(/C#N)C(=O)OC)c3cc(-c4ccc(OC)cc4)sc23)c2sc(-c3ccc(OC)cc3)cc12
photoluminescence quantum yield (in Cc1ccccc1): 0.424

N#Cc1c(C#N)c2cc(Br)ccc2c2ccc(Br)cc12
photoluminescence quantum yield (in ClC(Cl)Cl): 0.01

CCOC(=O)c1ccccc1-c1c2ccc(=O)cc-2oc2cc(OC(=O)[C@H](CO[Si](C)(C)C(C)(C)C)NC(=O)OC(C)(C)C)ccc12
photoluminescence quantum yield (in C1CCOC1): 0.003 | photoluminescence quantum yield (in CC#N): 0.003 | photoluminescence quantum yield (in CCO): 0.048 | photoluminescence quantum yield (in CS(C)=O): 0.01

CCC1(CC)c2cc(N(C)C)ccc2-c2ccc(C(F)(F)F)cc21
photoluminescence quantum yield (in C1CCCCC1): 0.67 | photoluminescence quantum yield (in CC#N): 0.04 | photoluminescence quantum yield (in CCO): 0.58 | photoluminescence quantum yield (in CCOCC): 0.63 | photoluminescence quantum yield (in CS(C)=O): 0.53 | photoluminescence quantum yield (in ClCCl): 0.44 | photoluminescence quantum yield (in c1ccccc1): 0.59

Cc1ccc(-c2c3nc(c(-c4ccc(C)cc4)c4ccc([nH]4)c(-c4ccc(OC(=O)C(C)c5cccc(C(=O)c6ccccc6)c5)cc4)c4nc(c(-c5ccc(C)cc5)c5ccc2[nH]5)C=C4)C=C3)cc1 (stereo not given)
photoluminescence quantum yield (in ClCCl): 0.12

CCCCCCCCn1c(=O)c2cc3c(C#Cc4ccc(N(c5ccccc5)c5ccccc5)cc4)c4cc5c(=O)n(CCCCCCCC)c(=O)c5cc4c(C#Cc4ccc(N(c5ccccc5)c5ccccc5)cc4)c3cc2c1=O
photoluminescence quantum yield (in ClC(Cl)Cl): 0.53

c1ccc2[nH]ccc2c1
photoluminescence quantum yield (in O): 0.93

C(=C\c1ncc(-c2ccc(OCc3ccccc3)c(OCc3ccccc3)c2)o1)/c1cccc(N2CCN(c3ccccc3)CC2)c1
photoluminescence quantum yield (in ClCCl): 0.11

O=c1cc(-c2nc3ccccn3c2NC2CCCCC2)occ1OCc1ccccc1
photoluminescence quantum yield (in ClCCl): 0.209

C[N+]1=C(/C=C/C=C2/N(CCC[N+](C)(C)C)c3ccccc3C2(C)C)C(C)(C)c2ccccc21
photoluminescence quantum yield (in CS(C)=O): 0.08

O=C([O-])c1ccccc1-c1c2cc(Br)c(=O)c(Br)c-2oc2c(Br)c([O-])c(Br)cc12
photoluminescence quantum yield (in CC(C)O): 0.76 | photoluminescence quantum yield (in CCO): 0.69 | photoluminescence quantum yield (in CO): 0.6 | photoluminescence quantum yield (in O): 0.2

CC(C)c1ccc2ccc3cccc4ccc1c2c34
photoluminescence quantum yield (in CCCCCC): 0.21 | photoluminescence quantum yield (in CO): 0.24 | photoluminescence quantum yield (in ClCCl): 0.41

N#Cc1c(N2CCCCC2)cc(-c2cccs2)c2c1CCc1ccccc1-2
photoluminescence quantum yield (in C1CCOC1): 0.21

COc1ccc2c(c1)C(=O)c1cc(OC)cc(OC)c1-2
photoluminescence quantum yield (in C1CCCCC1): 0.0024 | photoluminescence quantum yield (in CC#N): 0.0001 | photoluminescence quantum yield (in CCO): 0

COC(=O)c1[nH]c(-c2ccc([N+](=O)[O-])cc2)c2nnc3ccc(OC)cc3c12
photoluminescence quantum yield (in ClCCl): 0.262

COc1ccc2c(c1)N(c1ccc(C)cc1)c1cc3c(cc1=N2)Oc1c(cc(C(C)(C)C)cc1C(C)(C)C)N=3
photoluminescence quantum yield (in CCCCCC): 0.35

COc1ccc(C#Cc2c(C#Cc3ccc(OC)cc3)c(C#Cc3ccc(OC)cc3)c(C#Cc3ccc(OC)cc3)c(C#Cc3ccc(OC)cc3)c2C#Cc2ccc(OC)cc2)cc1
photoluminescence quantum yield (in ClCCl): 0.55

CCCCN1c2ccccc2Sc2cc(/C=C/c3nc4nc5ccccc5nc4s3)ccc21
photoluminescence quantum yield (in C1CCCCC1): 0.27 | photoluminescence quantum yield (in C1CCOC1): 0.01 | photoluminescence quantum yield (in C1COCCO1): 0.07 | photoluminescence quantum yield (in CC#N): 0 | photoluminescence quantum yield (in CC(C)=O): 0.001 | photoluminescence quantum yield (in CC(C)O): 0 | photoluminescence quantum yield (in CCOC(C)=O): 0.02 | photoluminescence quantum yield (in CCOCC): 0.05 | photoluminescence quantum yield (in CO): 0 | photoluminescence quantum yield (in CS(C)=O): 0 | photoluminescence quantum yield (in Cc1ccccc1): 0.08 | photoluminescence quantum yield (in ClCCl): 0.008

Cc1cc(C)c(C2=C3C=CC4=[N+]3[B-]3(Oc5ccccc54)Oc4ccccc4-c4ccc2n43)c(C)c1 (stereo not given)
photoluminescence quantum yield (in ClC(Cl)Cl): 0.72

CCOC(=O)c1cc(C(=O)OCC)c2cccc(OCc3ccccc3)c2n1
photoluminescence quantum yield (in CCO): 0.2

F[B-]1(F)n2c(-c3ccccc3)c3ccc4ccccc4c3c2N=C2c3c(ccc4ccccc34)C(c3ccccc3)=[N+]21
photoluminescence quantum yield (in ClCCl): 0.14

O=C(O)C1=C/C(=C/C=[N+]2/c3cc(O)c(C[C@@H]4O[C@H](CO)[C@@H](O)C(O)[C@H]4O)cc3C[C@H]2C(=O)O)C[C@@H](C(=O)O)N1 (stereo not given in full)
photoluminescence quantum yield (in CO): 0.0013 | photoluminescence quantum yield (in O): 0.0007 | photoluminescence quantum yield (in OCCO): 0.0046 | photoluminescence quantum yield (in [2H]O[2H]): 0.0011

O=[N+]([O-])c1ccc(-c2nc(/C=C/c3ccccc3)c(/C=C/c3ccccc3)[nH]2)cc1
photoluminescence quantum yield (in ClCCl): 0

C#CCn1c2ccccc2c2cc(/C=C/C3=[N+]4C(=C(c5ccc(I)cc5)c5c(C)c(Cl)c(/C=C/c6ccc7c(c6)c6ccccc6n7CC#C)n5[B-]4(F)F)C(C)=C3Cl)ccc21
photoluminescence quantum yield (in CC#N): 0.5 | photoluminescence quantum yield (in CS(C)=O): 0.32 | photoluminescence quantum yield (in ClC(Cl)Cl): 0.55

CCOC(=O)c1c2c3c(ccc(Cl)c3c3cc4ccccc4cc13)N(C)C2=O
photoluminescence quantum yield (in CC#N): 0.41

Cc1ccc(C2=Cc3c4ccccc4c4ccccc4[n+]3[B-](F)(F)O2)cc1
photoluminescence quantum yield (in ClC(Cl)Cl): 0.275

[NH3+]c1cc([NH3+])cc(-c2nc3ccccc3s2)c1
photoluminescence quantum yield (in O): 0.011

CN(C)c1ccc(-c2nc3c(c4c2-c2ccccc2CC4)-c2ccccc2CC3)cc1
photoluminescence quantum yield (in C1CCOC1): 0.396 | photoluminescence quantum yield (in CC#N): 0.182 | photoluminescence quantum yield (in CCCCCC): 0.05 | photoluminescence quantum yield (in CCOC(C)=O): 0.164 | photoluminescence quantum yield (in CO): 0.08 | photoluminescence quantum yield (in CS(C)=O): 0.215 | photoluminescence quantum yield (in Cc1ccccc1): 0.112 | photoluminescence quantum yield (in ClCCl): 0.269

O=Cc1ccc(C=C(c2ccccc2)c2ccccc2)cc1
photoluminescence quantum yield (in C1CCOC1): 0.039

c1ccc2c(c1)cc(-c1cc(-c3nccs3)nc(-c3nccs3)c1)c1ccccc12
photoluminescence quantum yield (in CC#N): 0.234 | photoluminescence quantum yield (in CCCCCC): 0.142 | photoluminescence quantum yield (in CO): 0.161 | photoluminescence quantum yield (in ClC(Cl)Cl): 0.312

c1cc2ccc1CCCc1ccc(c3nsnc13)CCC2
photoluminescence quantum yield (in C1CCCCC1): 0.51 | photoluminescence quantum yield (in CC#N): 0.19 | photoluminescence quantum yield (in ClC(Cl)Cl): 0.49

Oc1cccc2c(C3(O)C4CC5CC(C4)CC3C5)cccc12 (stereo not given)
photoluminescence quantum yield (in CC#N): 0.33

O=C1c2ccccc2C(=O)C1C1C(=O)c2c3ccccc3cc3cc4ccccc4c1c23 (stereo not given)
photoluminescence quantum yield (in C1CCOC1): 0.294 | photoluminescence quantum yield (in CC#N): 0.139 | photoluminescence quantum yield (in CCCCCC): 0.339 | photoluminescence quantum yield (in Cc1ccccc1): 0.356 | photoluminescence quantum yield (in ClCCl): 0.247

CC1=CC(C)=[N+]2C1=C(C1=C3C(C)=CC(C)=[N+]3[B-](F)(F)n3c(C)cc(C)c31)c1c(C)cc(C)n1[B-]2(F)F
photoluminescence quantum yield (in ClC(Cl)Cl): 0.31

O=c1oc2ccccc2c2c1c(=O)oc1ccc3ccc(O)cc3c12
photoluminescence quantum yield (in CS(C)=O): 0.02 | photoluminescence quantum yield (in ClCCl): 0.22

c1ccc(-c2cc(-c3ccccc3)[o+]c(-c3ccccc3)c2)cc1
photoluminescence quantum yield (in CC#N): 0.4 | photoluminescence quantum yield (in ClCCCl): 0.28

CCn1ncc2c3c(C#N)c4c5ccccc5n(CC)c4nc3ccc21
photoluminescence quantum yield (in CCOC(C)=O): 0.6

CCOC(=O)C1=CN(c2ccccc2)C=CC1c1ccccc1 (stereo not given)
photoluminescence quantum yield (in C1CCOC1): 0.12 | photoluminescence quantum yield (in CO): 0.05

Cc1cc(O)c(C(=O)/C=C/c2ccc(N(C)C)cc2)c(=O)o1
photoluminescence quantum yield (in CC#N): 0.018 | photoluminescence quantum yield (in ClCCl): 0.538

F[B-]1(F)Oc2ccccc2-c2c3c(c4c([n+]21)CCc1ccccc1-4)CCc1ccccc1-3
photoluminescence quantum yield (in ClCCl): 0.11

O=P1(c2ccccc2)c2cc(N3c4ccccc4Oc4ccccc43)ccc2-c2ccc(N3c4ccccc4Oc4ccccc43)cc21
photoluminescence quantum yield (in Cc1ccccc1): 0.47 | photoluminescence quantum yield (in c1ccc2c(c1)c1ccccc1n2-c1ccc(-c2ccc(-n3c4ccccc4c4ccccc43)cc2)cc1): 0.41

O=P1(c2ccccc2)C(c2ccc(C(F)(F)F)cc2)=Cc2cc3ccccc3cc21 (stereo not given)
photoluminescence quantum yield (in ClCCl): 0.42

COc1ccc(C2=N/C(=C\c3ccc(C#N)cc3)C(=O)O2)cc1OC
photoluminescence quantum yield (in C1COCCO1): 0.421

COc1cc(OC)cc(C2=C3C(C)=C(I)C(/C=C/c4c[nH]c5ccccc45)=[N+]3[B-](F)(F)n3c(/C=C/c4c[nH]c5ccccc45)c(I)c(C)c32)c1
photoluminescence quantum yield (in C1CCOC1): 0.12 | photoluminescence quantum yield (in CS(C)=O): 0.1 | photoluminescence quantum yield (in ClCCl): 0.15

c1ccc(C2=C(c3ccccc3)c3cccc4c3c(cc3nc5c(-c6ccccc6)ccc(-c6ccccc6)c5nc34)O2)cc1
photoluminescence quantum yield (in ClCCl): 0.23

CC(C)(C)c1cc(-n2c(-c3ccc(C(=C(c4ccccc4)c4ccccc4)c4ccccc4)cc3)cc3c2cc(-c2ccc(C(=C(c4ccccc4)c4ccccc4)c4ccccc4)cc2)n3-c2cc(C(C)(C)C)cc(C(C)(C)C)c2)cc(C(C)(C)C)c1
photoluminescence quantum yield (in ClCCl): 0.0085

Nc1nc2c([nH]c(=O)n2[C@H]2C[C@H](O)[C@@H](CO)O2)c(=O)[nH]1
photoluminescence quantum yield (in O): 0.00013

C(=C\c1cnc2ccccc2n1)/c1cnccn1
photoluminescence quantum yield (in CCCCCC): 0.0014 | photoluminescence quantum yield (in CCO): 0.0012 | photoluminescence quantum yield (in CO): 0.001 | photoluminescence quantum yield (in ClCCl): 0.0014 | photoluminescence quantum yield (in c1ccccc1): 0.0015

Cc1cc(C)c(B2c3cc(C(C)(C)C)cc4c5ccccc5c5c6ccccc6c6cc(C(C)(C)C)cc2c6c5c34)c(C)c1
photoluminescence quantum yield (in C1CCCCC1): 0.7

N#Cc1cnc(-c2c3ccccc3c(-c3ccccc3)c3ccccc23)nc1
photoluminescence quantum yield (in CCO): 0.04 | photoluminescence quantum yield (in ClCCl): 0.0001

CC(C)(C)c1ccc(-c2cc3c(-c4ccc(C(C)(C)C)cc4)c4cccc5c(-c6ccc(C(C)(C)C)cc6)cc6c(-c7ccc(C(C)(C)C)cc7)c7cccc2c7c3c6c54)cc1
photoluminescence quantum yield (in C1CCCCC1): 0.23 | photoluminescence quantum yield (in CC#N): 0.2 | photoluminescence quantum yield (in CO): 0.21 | photoluminescence quantum yield (in Cc1ccccc1): 0.41 | photoluminescence quantum yield (in ClCCl): 0.27

COc1cn2cc(-c3ccc(C#N)cc3)[n-][n+]2c1
photoluminescence quantum yield (in ClCCl): 0.57
